{"source": "paper PMC7414093", "about": "(Proceedings of the National Academy of Sciences of the …, 2020)", "key": {"[1]": {"test_system": "MDCK-SIAT1 cells", "settings": "for cytotoxic concentration (CC)50: dog"}, "[2]": {"assay": "in vitro", "settings": "dog, CC50, compound alone, 72 h"}, "[3]": {"biological_target": "H5 A/Vietnam/1203/2004 HA (Influenza A virus, UniProt Q5EP31)", "assay": "biochemical", "type": "binding"}, "[4]": {"test_system": "H1N1 virus expressing A/Beijing/262/1995 (H1/Beijing)", "assay": "microbe, parasite or virus in culture", "type": "cell-based", "settings": "Influenza A virus, H1N1, 72 h, read-out: EC50, virus neutralization"}, "[5]": {"test_system": "H1N1 virus expressing A/Solomon Islands/3/2006 (H1/SI06)", "assay": "microbe, parasite or virus in culture", "type": "cell-based, influenza A virus"}, "[6]": {"test_system": "H5N1 pseudovirus expressing H5 A/Vietnam/1203/2004", "assay": "organism not typed", "type": "cell-based, influenza A virus", "settings": "72 h, read-out: EC50, virus neutralization"}, "[7]": {"assay": "Solubility in PBS", "type": "physicochemical", "settings": "aqueous buffer"}, "[8]": {"assay": "in vitro", "settings": "human, pH 7.4"}, "[9]": {"test_system": "human cells", "set-up": "method as in PMID 30846569", "settings": "cited from earlier work"}}, "note": "Where “and” joins values, the source holds several entries; their conditions need not be identical. Identical values can stand only once.", "data": [{"smiles": "O=C(c1ccc(Cl)cc1Cl)N1CCO[C@H](c2ccccc2)C1", "note": "[F0045(R)]", "values": [{"measurement": "cytotoxic concentration (CC)50", "setting": "[1]", "result": "> 130", "unit": "µM"}, {"measurement": "CC50", "setting": "[2]", "result": 138, "unit": "µM"}]}, {"smiles": "O=C(c1ccc(Cl)cc1Cl)N1CCO[C@@H](c2ccccc2)C1", "note": "[F0045(S)]", "values": [{"measurement": "EC50", "setting": "[3]", "result": "16.2 ± 3.4", "unit": "µM"}, {"measurement": "EC50", "setting": "[4]", "result": "1.6 ± 0.1", "unit": "µM"}, {"measurement": "protection from infection (in words)", "setting": "[5]", "result": "did not protect cells from infection"}, {"measurement": "EC50", "setting": "[5]; Influenza A virus, H1N1, 72 h, read-out: EC50, virus neutralization", "result": "> 150", "unit": "µM"}, {"measurement": "EC50", "setting": "[6]", "result": "22.8 ± 2.3", "unit": "µM"}, {"measurement": "solubility", "setting": "[7]", "result": "> 500", "unit": "µM"}, {"measurement": "cytotoxic concentration (CC)50", "setting": "[1]", "result": "> 130", "unit": "µM"}, {"measurement": "CC50", "setting": "[1]; read-out: CC50, compound alone, 72 h", "result": "157 µM and 84 µM and 98 µM"}, {"measurement": "CC50", "setting": "[2]", "result": 102, "unit": "µM"}, {"measurement": "k el", "setting": "[8]; 0.42 mg", "result": 0.000283, "unit": "s⁻¹"}, {"measurement": "half-life", "setting": "[8]; microsomes", "result": 40.8, "unit": "min"}, {"measurement": "microsomal CLint", "setting": "[8]; microsomes", "result": 41, "unit": "µL/min/mg"}]}, {"smiles": "CC(=O)Nc1ccc2oc(-c3ccnc(C(=O)N4CCN([C@H](c5ccccc5)c5nnn(C)n5)CC4)c3)nc2c1", "note": "[JNJ4796]", "values": [{"measurement": "CC50", "setting": "[9]", "result": "> 10", "unit": "µM"}]}]}
